Measurements from US8431541B2, “Alpha-amylase inhibitors: the montbretins and uses thereof” (The University of British Columbia, priority 2007, dated 2013).
Blank lines part the entries; values can stand above or below the compound they belong to.

How the values were obtained:
[1] = test system: control and STZ-diabetic rats; experiment: Acute starch tolerance test; type: in vivo, rat; conditions: STZ-diabetic rats, starch tolerance test; extracts 5 mg/kg
Experimental: Twenty-four animals were obtained at 200-250 g of body weight and randomly divided into control and diabetic groups. Diabetes was induced by a single intravenous tail vein injection of streptozotocin 60 mg/kg in 0.9% normal saline. Control rats received normal saline injections only. Animals were subsequently divided into acarbose untreated and treated. […] Starch was obtained from Fisher Scientific and a 17.5% suspension was made in distilled water. The dose of starch given was […].
The animals were fasted overnight. A basal blood sample was collected (50 μl volume) and then at 30, 60, 90 and 120 minutes post drug administration. Starch and starch+acarbose was administered by oral gavage. Blood was centrifuged at 10,000 g×25 minutes and plasma collected for determination of glucose levels using a Beckman Glucose Analyzer II™. There was no difference in body weight among the groups. There was a significant increase in plasma glucose 30 and 60 minutes following starch administration in the diabetic untreated group only.
The twenty-four animals from Example 6 were used following a wash out period of one week. Animals were divided into montbretin A untreated and treated. The four treatment groups were: control, n=6, control+montbretin A, n=6, diabetic, n=6 and diabetic+montbretin A, n=6. The procedures used in Example 6 were employed. Montbretin A was dissolved in distilled water at a concentration of 10 mg/ml and given at a volume of 1 ml/kg. The dose of montbretin A given was 10 mg/kg. There was no difference in body weight among the groups. There was a significant increase in plasma glucose levels in the diabetic untreated group at 30 and 60 minutes following starch administration.
A study was done to determine the effect of various amounts of montbretin A and montbretin extracts on plasma glucose levels in response to a starch challenge in STZ-diabetic rats. Diabetic animals used in the previous Examples were used following a wash out period of one week. The six experimental groups were: diabetic (D, n=3) diabetic+montbretin A (5 mg/kg), (DT5, n=3), diabetic+montbretin A (1 mg/kg), (DT1, n=3), diabetic+montbretin A (0.5 mg/kg), (DT0.5, n=3), diabetic+Crocosmia corm methanol extract (5 mg/kg), (DM, n=3) and diabetic+Crocosmia corm ethanol extract (5 mg/kg), (DE, n=2).
Montbretin A was dissolved in distilled water at a concentration of 5, 1 or 0.5 mg/ml and given at a volume of 1 ml/kg. The methanol extract contained montbretin A at a concentration of 3.2 mg/ml and ethanol extract at a concentration of 1.6 mg/ml. These extracts were dried and resuspended in distilled water. There was no difference in body weight among the groups. […] Diarrhea occurred in 2 out 3 animals given the methanol extract and in 1 out of 2 animals given the ethanol extract. […]

human salivary α-amylase = target: T1, human salivary α-amylase (Homo sapiens, UniProt P0DUB6); conditions: Lo Piparo et al., J. Med. Chem. 2008; read-out: IC50, inhibition of human salivary α-amylase; cited from earlier work
T1 sequence (P0DUB6 16-511): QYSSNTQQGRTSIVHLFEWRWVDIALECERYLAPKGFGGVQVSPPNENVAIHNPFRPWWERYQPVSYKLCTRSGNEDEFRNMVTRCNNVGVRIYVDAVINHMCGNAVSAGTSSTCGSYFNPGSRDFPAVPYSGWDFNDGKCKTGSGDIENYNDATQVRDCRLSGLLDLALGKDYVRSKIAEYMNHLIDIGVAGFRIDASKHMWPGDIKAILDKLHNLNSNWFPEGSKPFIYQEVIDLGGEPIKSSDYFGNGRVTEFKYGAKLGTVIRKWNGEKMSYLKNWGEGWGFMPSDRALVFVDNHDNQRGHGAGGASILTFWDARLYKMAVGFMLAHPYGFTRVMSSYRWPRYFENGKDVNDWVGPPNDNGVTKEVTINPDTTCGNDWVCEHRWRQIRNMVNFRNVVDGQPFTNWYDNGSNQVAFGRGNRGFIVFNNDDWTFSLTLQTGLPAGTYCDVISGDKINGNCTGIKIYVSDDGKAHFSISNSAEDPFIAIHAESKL

[2] = Aqueous solubility (observation)
[3] = target: T2, porcine pancreatic α-amylase (Sus scrofa, UniProt P00690); conditions: Taderal et al. 2006; read-out: IC50, inhibition of porcine pancreatic α-amylase; cited from earlier work
T2 sequence (P00690 16-511): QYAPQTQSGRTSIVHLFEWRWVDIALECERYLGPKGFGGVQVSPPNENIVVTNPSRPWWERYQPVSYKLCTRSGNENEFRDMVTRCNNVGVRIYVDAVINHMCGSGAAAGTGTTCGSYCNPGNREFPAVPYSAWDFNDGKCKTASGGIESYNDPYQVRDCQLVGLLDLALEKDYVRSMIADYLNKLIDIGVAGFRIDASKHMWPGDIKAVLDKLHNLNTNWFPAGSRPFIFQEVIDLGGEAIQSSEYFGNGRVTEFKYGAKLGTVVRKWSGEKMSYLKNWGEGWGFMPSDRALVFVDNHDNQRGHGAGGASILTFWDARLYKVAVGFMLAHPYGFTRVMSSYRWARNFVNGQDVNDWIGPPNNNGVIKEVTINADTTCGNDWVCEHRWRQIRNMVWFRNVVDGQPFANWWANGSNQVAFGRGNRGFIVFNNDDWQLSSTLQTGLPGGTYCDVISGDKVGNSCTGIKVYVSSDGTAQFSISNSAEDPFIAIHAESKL

[4] = Stability in simulated intestinal fluid (SIF) by UPLC; type: in vitro ADME; conditions: positive control, 0.5 mg/ml, 37° C., 3 hours
Experimental: (§1) The stability of montbretin A in both simulated intestinal fluid (SIF) and simulated gastric fluid (SGF) were analyzed via ultra performance liquid chromatography (UPLC). The instrument consisted of a Waters® Acquity™ UPLC system equipped with a PDA and a TQ detector in tandem. The 2 μL sample injection volume was passed through a Waters® Acquity™ BEH C18 column (1.7 μm, 2.1×100 mm), with mobile phases A and B consisting of water with 0.1% formic acid and acetonitrile with 0.1% formic acid, respectively. The mobile phases were delivered at a programmed linear gradient at a column temperature of 35° C. Linearity was evaluated using a set of montbretin A calibration standards with concentrations ranging from 10 to 100 μg/mL in water. […]
(§2) To examine the gastrointestinal fluid activity, 0.5 mg/ml solutions of oleamide (positive control) in SGF or SIF were prepared by diluting a 100 μL aliquot of oleamide (50 mg/mL in 2-propanol) to 10 mL with either SGF or SIF and incubated in a 37° C. water bath for 1 or 3 hours, respectively. At time points of 1 or 3 hours, the sample was removed from the water bath and a 100 μL aliquot of the resulting solution was diluted to 1 mL with de-ionized water in a glass UPLC glass sample vial and analyzed by UPLC for oleamide content. […]

[5] = Stability in simulated gastric fluid (SGF) by UPLC; type: in vitro ADME; conditions: positive control, 0.5 mg/ml, 37° C., 1 hour
Experimental: as §1, §2

[6] = target: T3, human pancreatic α-amylase (HPA) (Homo sapiens, UniProt P04746); experiment: Kinetic analysis of HPA inhibition; type: biochemical
T3 sequence (P04746 16-511): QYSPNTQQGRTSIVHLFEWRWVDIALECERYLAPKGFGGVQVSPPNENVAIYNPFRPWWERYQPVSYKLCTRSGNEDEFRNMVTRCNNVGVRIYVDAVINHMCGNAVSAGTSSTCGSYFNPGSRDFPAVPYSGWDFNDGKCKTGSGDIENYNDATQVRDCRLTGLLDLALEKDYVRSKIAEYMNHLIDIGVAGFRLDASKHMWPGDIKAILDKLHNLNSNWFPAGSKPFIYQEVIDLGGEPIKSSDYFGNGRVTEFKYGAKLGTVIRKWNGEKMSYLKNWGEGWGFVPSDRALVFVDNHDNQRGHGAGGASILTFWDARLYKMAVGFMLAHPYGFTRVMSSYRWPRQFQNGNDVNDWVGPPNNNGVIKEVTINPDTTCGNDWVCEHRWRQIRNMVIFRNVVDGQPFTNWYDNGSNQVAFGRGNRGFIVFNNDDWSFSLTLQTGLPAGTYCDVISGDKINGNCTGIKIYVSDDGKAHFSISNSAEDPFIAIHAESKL

[7] = range finder method, Dixon plot, fixed substrate concentration

Compound: montbretin A
occurrence of diarrhea [1]: No diarrhea

Compound: O=c1c(O)c(-c2cc(O)c(O)c(O)c2)oc2cc(O)cc(O)c12 [myricetin]
IC50 (human salivary α-amylase): > 9 µM | aqueous solubility [2]: limited aqueous solubility | IC50 [3]: 380 µM

Compound: CCCCCCCC/C=C\CCCCCCCC(N)=O [Oleamide, oleamide, reference compound]
change of concentration after incubation in SIF [4]: significant decrease in concentration | change of concentration after incubation in SGF [5]: significant decrease in concentration

Compound: montbretin C
Ki [6, 7]: 6.1 ± 0.1 µM

The next lines start with the values.

Ki [6, 7]: 3.6 ± 0.1 µM
Compound: CC1O[C@@H](O[C@@H]2CO[C@@H](Oc3c(O)cc(-c4oc5cc(O)cc(O)c5c(=O)c4O[C@@H]4OC(C)[C@H](O)[C@H](O)C4O[C@@H]4OC(COC(=O)/C=C/c5ccc(O)cc5)[C@@H](O)[C@@H](O)C4O[C@@H]4OC(CO)[C@@H](O)[C@@H](O)C4O)cc3O)C(O)[C@@H]2O)C(O)[C@@H](O)[C@H]1O (some centres unmarked) [Montbretin B, montbretin B]

aqueous solubility [2]: limited aqueous solubility | mode of inhibition of HPA ([6]; double reciprocal plot): non-competitive | Ki ([6]; varied substrate and inhibitor concentrations, GraFit): 1300 ± 100 µM
Compound: CCOC(=O)/C=C/c1ccc(O)c(O)c1 [ethyl caffeiate, reference compound]
